Results from US20150174213A1, “COMPOSITIONS COMPRISING SULFORAPHANE OR A SULFORAPHANE PRECURSOR AND URSOLIC ACID” (Nutramax Laboratories, Inc., priority 2012, published 2015).

Assays:
[1] = system: mammary tumors; conditions: Sprague-Dawley rats; cited from earlier work
[2] = system: mammary epithelium; conditions: oral administration, Sprague-Dawley rats; cited from earlier work
[3] = system: myrosinase; assay: Conversion of glucoraphanin to sulforaphane in Simulated Intestinal Fluid (Example 5); assay type: biochemical, broccoli; conditions: 0.25 to 1.00 mmol/Liter ascorbic acid, 38° C., FIG. 4
Method: Simulated Intestinal Fluid (SIF) powder, a commercially supplied concentrate closely approximating the human intestinal content in terms of composition, pH and ionic strength, was used. The experiment utilized a USP Dissolution Apparatus 2 (paddles), where into six dissolution vessels 500 mL of Simulated Intestinal Fluid was dispensed, along with 150 mg of freeze-dried broccoli sprout powder as a source of myrosinase. […] Aliquots were withdrawn every 15 minutes, and assayed for sulforaphane.

[4] = system: myrosinase; assay: Equimolar conversion of glucoraphanin to sulforaphane by myrosinase with ascorbic acid (Example 4); assay type: biochemical, broccoli; conditions: control sample, without ascorbic acid
Method: A two-part experiment was conducted to further elucidate the role of ascorbic acid in modulating myrosinase activity. […] A control sample contained no ascorbic acid, and the enzymatic conversion proceeded unassisted by a co-factor. PART 1. […] PART 2. While keeping the amount of broccoli seed extract fixed at 250 mg, the concentration of ascorbic acid was varied from 0.4 mmol/Liter to 3.8 mmol/Liter.

SMILES: C[S+]([O-])CCCCN=C=S (centres unmarked) [SFN, 1-isothiocyanato-4-methylsulfinylbutane]
- Blocking the formation of mammary tumors [1]: effective
- Elevated immunostaining of the heme oxygenase-1 (HO-1) enzyme [2]: 4 fold
- Increase in NAD(P)H:quinine oxidoreductase (NQO1) enzymatic activity [2]: 3 fold

SMILES: O=C1O[C@H]([C@@H](O)CO)C(O)=C1O [Ascorbic Acid, Ascorbic acid]
- Yield of sulforaphane versus ascorbic acid concentration [3]: direct correlation between larger yield of sulforaphane and higher concentrations of ascorbic acid

SMILES: C[S+]([O-])CCCC/C(=N\OS(=O)(=O)O)S[C@@H]1O[C@H](CO)[C@@H](O)[C@H](O)[C@H]1O (some centres unmarked) [glucoraphanin, 4-methylsulfinylbutyl glucosinolate]
- Stoichiometry of conversion of glucoraphanin to sulforaphane [4]: equimolar conversion
